Molecular target: human VR1 (Homo sapiens, UniProt Q8NER1)
Assay: Human VR1 antagonist assay (Ca2+ imaging)
Format: cell-based
Details: Ca2+ imaging assay using human VR1 highly expressing cells, fura-2/AM; agonist stimulation (capsaicin 300 nM or acid pH 5.8), not given
Source text: Human VR1 Antagonist Assay
VR1 antagonistic activity can be determined by the Ca^2+ imaging assay using human VR1 highly expressing cells. The cells that highly express human VR1 receptors are obtainable from several different conventional methods. The one standard method is cloning from human Dorsal Root Ganglion (DRG) or kidney according to the methods such as described in the journal article; Nature, 389, pp 816-824, 1997. Alternatively VR1 receptors highly expressing human keratinocytes are also known and published in the journal article (Biochemical and Biophysical Research Communications, 291, pp 124-129, 2002). […] Furthermore, the method to up regulate human VR1 gene, which is usually a silent gene or don't produce detectable level of VR1 receptors, is also available to obtain propriety cells. Such genetic modification method was described in detail; Nat. Biotechnol., 19, pp 440-445, 2001.
The cells that express human VR1 receptors were maintained in culture flask at 37° C. in an environment containing 5% CO2 until use in the assay. The intracellular Ca^2+ imaging assay to determine VR1 antagonistic activities were done by following procedures.
The culture medium was removed from the flask and fura-2/AM fluorescent calcium indicator was added to the flask at a concentration of 5 μM in the medium. The flask was placed in CO2 incubator and incubated for 1 hour. Then the cells expressing the human VR1 receptors were detached from the flask follow by washing with phosphate buffer saline, PBS(−) and re-suspended in assay buffer. The 80 μl of aliquot of cell suspension (3.75×10^5 cells/ml) was added to the assay plate and the cells were spun down by centrifuge (950 rpm, 20° C., 3 minutes).
The compounds of the examples were tested in the Human VR1 antagonist assay described above.
The capsaicin-induced changes in the intracellular calcium concentration were monitored using FDSS 6000 (Hamamatsu Photonics, Japan), a fluorometric imaging system. The cell suspension in Krebs-Ringer HEPES (KRH) buffer (115 mM NaCl, 5.4 mM KCl, 1 mM MgSO4, 1.8 mM CaCl2, 11 mM D-Glucose, 25 mM HEPES, 0.96 mM Na2HPO4, pH 7.3) were pre-incubated with varying concentrations of the test compounds or KRH buffer (buffer control) for 15 minutes at room temperature under the dark condition. Then capsaicin solution, which gives 300 nM in assay mixture, was automatically added to the assay plate by the FDSS 6000.
The Acid-induced changes in the intracellular calcium concentration were monitored using FDSS 6000 (Hamamatsu Photonics, Japan), a fluorometric imaging system. The cell suspension in resting buffer (HBSS supplemented with 10 mM HEPES, pH 7.4) were pre-incubated with varying concentrations of the test compounds or resting buffer (buffer control) for 15 minutes at room temperature under the dark condition. The cells were automatically added the stimulating solution (HBSS supplemented with MES, final assay buffer pH5.8) by the FDSS 6000.
The monitoring of the changes in the fluorescence signals (λex=340 nm/380 nm, λem=510-520 nm) was initiated at 1 minute prior to the addition of capsaicin solution or acidic buffer and continued for 5 minute.

Sequence of human VR1 (Q8NER1 whole entry): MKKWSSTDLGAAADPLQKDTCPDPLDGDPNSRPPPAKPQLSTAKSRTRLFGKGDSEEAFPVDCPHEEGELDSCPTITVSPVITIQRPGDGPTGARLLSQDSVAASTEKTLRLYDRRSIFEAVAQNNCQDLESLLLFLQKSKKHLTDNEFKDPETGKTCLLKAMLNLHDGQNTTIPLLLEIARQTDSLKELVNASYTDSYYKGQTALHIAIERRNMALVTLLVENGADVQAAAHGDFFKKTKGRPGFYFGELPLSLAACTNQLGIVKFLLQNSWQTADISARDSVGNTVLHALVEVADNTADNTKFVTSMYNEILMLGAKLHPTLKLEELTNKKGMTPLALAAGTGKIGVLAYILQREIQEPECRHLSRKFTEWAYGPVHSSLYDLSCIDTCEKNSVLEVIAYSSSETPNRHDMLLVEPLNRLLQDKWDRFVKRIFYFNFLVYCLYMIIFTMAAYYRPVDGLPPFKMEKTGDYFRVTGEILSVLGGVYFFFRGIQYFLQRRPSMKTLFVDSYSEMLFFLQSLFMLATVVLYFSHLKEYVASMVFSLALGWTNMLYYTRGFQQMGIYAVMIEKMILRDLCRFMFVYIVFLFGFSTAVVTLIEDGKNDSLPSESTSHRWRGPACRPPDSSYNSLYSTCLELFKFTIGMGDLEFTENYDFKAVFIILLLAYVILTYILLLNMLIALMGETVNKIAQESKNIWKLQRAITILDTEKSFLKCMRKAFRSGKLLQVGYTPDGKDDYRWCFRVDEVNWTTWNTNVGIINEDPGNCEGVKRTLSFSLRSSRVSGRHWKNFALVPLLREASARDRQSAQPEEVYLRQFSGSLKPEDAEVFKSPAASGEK

SMILES	IC50
C[C@@H](NC(=O)c1ccc2cc(C(C)(O)C(F)(F)F)ccc2c1)c1ccnc2ccccc12 (stereo partly drawn) [Example A9, N-[(1R)-1-quinolin-4-ylethyl]-6-(2,2,2-trifluoro-1-hydroxy-1-methylethyl)-2-naphthamide]	382 nM
CC(O)(c1ccc2cc(C(=O)NCc3cccc4cnccc34)ccc2n1)C(F)(F)F (centres unmarked) [Example C17, N-(isoquinolin-5-ylmethyl)-2-(2,2,2-trifluoro-1-hydroxy-1-methylethyl)quinoline-6-carboxamide]	176 nM
